Paper PMC11241395 (International Journal of Molecular Sciences, 2024)
Entries after “also recorded” stand apart in the source; their conditions may differ. Read-outs that look alike come from different tables or passages of the source.

Experiments:
[1] = tested on: SKBR-3 (human breast adenocarcinoma); assay: MTT cytotoxicity assay, SKBR-3; assay type: cell-based; details: SK-BR-3, read-out: IC50 (SD), SKBR-3
Method: (§1) This activity was evaluated in vitro using the standard MTT method (enzymatic reduction of 3-[4,5-dimethylthiazole-2-yl]-2,5-diphenyltetrazolium bromide, MTT, to MTT-formazan) based on a viability assay.
(§2) Cytotoxic activity: Human cancer cells SKBR-3 (human breast cancer cell line) and SKOV-3 (ovarian cancer cell line) were cultured in McCoy’s Modified Medium. Human cancer cells PC-3 (human prostate cancer cell line) were cultured in an F-12K medium. The Human Dermal Fibroblast (HDF) cell line was cultured in Fibroblast Basal Medium. The U-87 cell line was cultured in EMEM medium. Each medium was supplemented with 10% foetal bovine serum, 1% L- glutamine, and 1% penicillin/streptomycin solution. The cell lines were kept in an incubator at 37 °C. All the cell lines and mediums were obtained from the American Type Culture Collection (ATCC) supplied by LGC-Standards (Lomianki, Poland).
(§3) The MTT assay was conducted as described earlier.

[2] = tested on: SKOV-3 (human ovarian cystadenocarcinoma); assay: MTT cytotoxicity assay, SKOV-3; assay type: cell-based; details: SK-OV-3, read-out: IC50 (SD), SKOV-3
Method: as §1, §2, §3

[3] = tested on: U-87 (human glioblastoma); assay: MTT cytotoxicity assay, U-87; assay type: cell-based; details: read-out: IC50 (SD), U-87
Method: as §1, §2, §3

[4] = tested on: HDF (regular fibroblast cell line); assay: MTT cytotoxicity assay, normal HDF cells; assay type: cell-based; details: Homo sapiens, read-out: IC50 (SD), HDF
Method: as §1, §2, §3

[5] = tested on: SKBR-3, SKOV-3, PC-3, and U-87 cancer cell lines; assay: MTT cytotoxicity assay, four cancer cell lines taken together; assay type: cell-based, human; details: span over the four cancer cell lines
Method: as §1, §2, §3

[6] = tested on: PC-3 (human prostate carcinoma); assay: MTT cytotoxicity assay, PC-3; assay type: cell-based; details: read-out: IC50 (SD), PC-3
Method: as §1, §2, §3

[7] = DPPH radical-scavenging assay; details: sample 1.0 mg/mL in DMSO, 30 min, 517 nm; compared with OA (1)
Method: The results are presented as % inhibition of the DPPH radical and Trolox equivalent, calculated from the standard curve (Figure 4). Activity assays were performed in eight repetitions.
The 2,2-diphenyl-1-picrylhydrazyl (DPPH) assay was performed according to Garbiec et al. with modifications. Briefly, 25 μL of the sample at a concentration of 1.0 mg/mL dissolved in dimethyl sulfoxide (DMSO) was mixed with 175 μL of DPPH solution (3.9 mg in 50 mL of methanol). The reaction mixture was shaken and incubated in the dark at room temperature for 30 min. The control sample contained 25 μL of DMSO and 175 μL of DPPH solution. Absorbance was measured at 517 nm. The inhibition of the DPPH radical by the sample was calculated according to the following formula: DPPH-scavenging activity (%) = ((AC − AS)/AC) × 100% where AC is the absorbance of the control and AS is the absorbance of the sample.
The results were presented as % inhibition of the DPPH radical and Trolox equivalent, calculated from the standard curve. Activity assays were performed in 8 repetitions.

Molecule `CC1(C)CC[C@]2(C(=O)OCOC(=O)[C@]34CCC(C)(C)CC3C3=CCC5[C@@]6(C)CC[C@H](O)C(C)(C)C6CC[C@@]5(C)[C@]3(C)CC4)CC[C@]3(C)C(=CCC4[C@@]5(C)CC[C@H](O)C(C)(C)C5CC[C@]43C)C2C1` (stereo partly shown) (hydrate or solvate) [Compound 2a] has a melting point of 183 to 185 °C.
`CC1(C)CC[C@]2(C(=O)O)CC[C@]3(C)C(=CC[C@@H]4[C@@]5(C)CC[C@H](O)C(C)(C)[C@@H]5CC[C@]43C)[C@@H]2C1` [1 (OA), Oleanolic acid, reference compound] showed an IC50 [1] of 19.6 µM, an IC50 [2] of 18.8 µM and an IC50 [3] of 18.2 µM. It also gave an IC50 ([4]; HDF) of roughly 25 µM and an IC50 ([5]; Homo sapiens) of 18 to 19 µM.
For `CC1(C)CC[C@]2(C(=O)OCOC(=O)[C@]34CCC(C)(C)CC3C3=CCC5[C@@]6(C)CC[C@H](O)C(C)(C)C6CC[C@@]5(C)[C@]3(C)CC4)CC[C@]3(C)C(=CCC4[C@@]5(C)CC[C@H](O)C(C)(C)C5CC[C@]43C)C2C1` (stereo partly shown) [Compound 2a], the IC50 [1] was 3.96 µM, the IC50 [2] was 3.89 µM and the IC50 [6] was 3.38 µM. For the same molecule, the IC50 [3] was 3.32 µM, the IC50 [4] was 6.56 µM and the IC50 ([5]; Homo sapiens) was 3.06 to 4.58 µM. The “DPPH radical inhibition expressed as Trolox equivalent” value (from here on “DPPH radical inhibition expressed”) [7] was “by far the highest activity; also recorded: significantly higher”.
With `CC1(C)CC[C@]2(C(=O)OCCOC(=O)[C@]34CCC(C)(C)CC3C3=CCC5[C@@]6(C)CC[C@H](O)C(C)(C)C6CC[C@@]5(C)[C@]3(C)CC4)CC[C@]3(C)C(=CCC4[C@@]5(C)CC[C@H](O)C(C)(C)C5CC[C@]43C)C2C1` (stereo partly shown) [Compound 2b] the IC50 [1] was 6.67 µM, the IC50 [2] was 6.49 µM and the IC50 [6] was 6.43 µM. The IC50 [3] was 6.59 µM, the IC50 [4] was 11.2 µM and the IC50 ([5]; Homo sapiens) was 4.79 to 8.22 µM. The “DPPH radical inhibition expressed” value [7] was “highest level of antioxidant activity; also recorded: significantly higher”.
`CC1(C)CC[C@]2(C(=O)OCCCOC(=O)[C@]34CCC(C)(C)CC3C3=CCC5[C@@]6(C)CC[C@H](O)C(C)(C)C6CC[C@@]5(C)[C@]3(C)CC4)CC[C@]3(C)C(=CCC4[C@@]5(C)CC[C@H](O)C(C)(C)C5CC[C@]43C)C2C1` (stereo partly shown) [Compound 2c] showed an IC50 [1] of 7.64 µM, an IC50 [2] of 8.22 µM and an IC50 [6] of 7.4 µM. For the same molecule, the IC50 [3] was 7.46 µM, the IC50 [4] was 18.9 µM and the IC50 ([5]; Homo sapiens) was 4.79 to 8.22 µM.
With `CC1(C)CC[C@]2(C(=O)OCCCCOC(=O)[C@]34CCC(C)(C)CC3C3=CCC5[C@@]6(C)CC[C@H](O)C(C)(C)C6CC[C@@]5(C)[C@]3(C)CC4)CC[C@]3(C)C(=CCC4[C@@]5(C)CC[C@H](O)C(C)(C)C5CC[C@]43C)C2C1` (stereo partly shown) [Compound 2d] the IC50 [1] was 1.12 µM, the IC50 [2] was 1.56 µM and the IC50 [6] was 1.64 µM. The IC50 [3] was 1.2 µM and the IC50 [4] was 2.95 µM.
With `CC1(C)CC[C@]2(C(=O)OC/C=C\COC(=O)[C@]34CCC(C)(C)CC3C3=CCC5[C@@]6(C)CC[C@H](O)C(C)(C)C6CC[C@@]5(C)[C@]3(C)CC4)CC[C@]3(C)C(=CCC4[C@@]5(C)CC[C@H](O)C(C)(C)C5CC[C@]43C)C2C1` (stereo partly shown) [Compound 2e] the IC50 [1] was 2.61 µM, the IC50 [2] was 2.09 µM and the IC50 [6] was 2.27 µM. The IC50 [3] was 2.74 µM and the IC50 [4] was 2.68 µM.
With `CC1(C)CC[C@]2(C(=O)OC/C=C/COC(=O)[C@]34CCC(C)(C)CC3C3=CCC5[C@@]6(C)CC[C@H](O)C(C)(C)C6CC[C@@]5(C)[C@]3(C)CC4)CC[C@]3(C)C(=CCC4[C@@]5(C)CC[C@H](O)C(C)(C)C5CC[C@]43C)C2C1` (stereo partly shown) [Compound 2f] the IC50 [1] was 5.09 µM, the IC50 [2] was 4.79 µM and the IC50 [6] was 5.11 µM. The IC50 [3] was 4.91 µM, the IC50 [4] was 2.78 µM and the IC50 ([5]; Homo sapiens) was 4.79 to 8.22 µM. The “DPPH radical inhibition expressed” value [7] was “highest level of antioxidant activity; also recorded: significantly higher”.
For `CC1(C)CC[C@]2(C(=O)OCCCCCOC(=O)[C@]34CCC(C)(C)CC3C3=CCC5[C@@]6(C)CC[C@H](O)C(C)(C)C6CC[C@@]5(C)[C@]3(C)CC4)CC[C@]3(C)C(=CCC4[C@@]5(C)CC[C@H](O)C(C)(C)C5CC[C@]43C)C2C1` (stereo partly shown) [Compound 2g], the IC50 [1] was 5.21 µM, the IC50 [2] was 5.16 µM and the IC50 [6] was 5.8 µM. The IC50 [3] was 5.32 µM, the IC50 [4] was 3.37 µM and the IC50 ([5]; Homo sapiens) was 4.79 to 8.22 µM.
Molecule `CC1(C)CC[C@]2(C(=O)OCCCCCCOC(=O)[C@]34CCC(C)(C)CC3C3=CCC5[C@@]6(C)CC[C@H](O)C(C)(C)C6CC[C@@]5(C)[C@]3(C)CC4)CC[C@]3(C)C(=CCC4[C@@]5(C)CC[C@H](O)C(C)(C)C5CC[C@]43C)C2C1` (stereo partly shown) [Compound 2h] has an IC50 [1] of 6.02 µM, an IC50 [2] of 5.39 µM and an IC50 [6] of 5.34 µM. For the same molecule, the IC50 [3] was 5.87 µM and the IC50 [4] was 17.3 µM.
Work on `CC1(C)CC[C@]2(C(=O)OCCCCCCCOC(=O)[C@]34CCC(C)(C)CC3C3=CCC5[C@@]6(C)CC[C@H](O)C(C)(C)C6CC[C@@]5(C)[C@]3(C)CC4)CC[C@]3(C)C(=CCC4[C@@]5(C)CC[C@H](O)C(C)(C)C5CC[C@]43C)C2C1` (stereo partly shown) [Compound 2i] yielded an IC50 [1] of 3.46 µM, an IC50 [2] of 3.68 µM and an IC50 [6] of 3.16 µM. The IC50 [3] was 3.06 µM, the IC50 [4] was 5.39 µM and the IC50 ([5]; Homo sapiens) was 3.06 to 4.58 µM.
`CC1(C)CC[C@]2(C(=O)OCCCCCCCCOC(=O)[C@]34CCC(C)(C)CC3C3=CCC5[C@@]6(C)CC[C@H](O)C(C)(C)C6CC[C@@]5(C)[C@]3(C)CC4)CC[C@]3(C)C(=CCC4[C@@]5(C)CC[C@H](O)C(C)(C)C5CC[C@]43C)C2C1` (stereo partly shown) [Compound 2j] gave an IC50 [1] of 9.99 µM, an IC50 [2] of 10.3 µM and an IC50 [6] of 9.81 µM. It also gave an IC50 [3] of 10.7 µM, an IC50 [4] of 16 µM and an IC50 ([5]; Homo sapiens) of 9.81 to 10.7 µM.
With `CC1(C)CC[C@]2(C(=O)OCCCCCCCCCOC(=O)[C@]34CCC(C)(C)CC3C3=CCC5[C@@]6(C)CC[C@H](O)C(C)(C)C6CC[C@@]5(C)[C@]3(C)CC4)CC[C@]3(C)C(=CCC4[C@@]5(C)CC[C@H](O)C(C)(C)C5CC[C@]43C)C2C1` (stereo partly shown) [Compound 2k] the IC50 [1] was 6.93 µM, the IC50 [2] was 6.89 µM and the IC50 [6] was 6.93 µM. The IC50 [3] was 7.34 µM, the IC50 [4] was 16.8 µM and the IC50 ([5]; Homo sapiens) was 4.79 to 8.22 µM.
In the case of `CC1(C)CC[C@]2(C(=O)OCCCCCCCCCCOC(=O)[C@]34CCC(C)(C)CC3C3=CCC5[C@@]6(C)CC[C@H](O)C(C)(C)C6CC[C@@]5(C)[C@]3(C)CC4)CC[C@]3(C)C(=CCC4[C@@]5(C)CC[C@H](O)C(C)(C)C5CC[C@]43C)C2C1` (stereo partly shown) [Compound 2l], the IC50 [1] is reported as 18.7 µM, the IC50 [2] is reported as 18.4 µM and the IC50 [6] is reported as 18.4 µM. It also gave an IC50 [3] of 18.7 µM, an IC50 [4] of 36.3 µM and an IC50 ([5]; Homo sapiens) of 18.4 µM. It also gave an IC50 [5] of 18.7 µM.
Molecule `CC1(C)CC[C@]2(C(=O)OCCCCCCCCCCCOC(=O)[C@]34CCC(C)(C)CC3C3=CCC5[C@@]6(C)CC[C@H](O)C(C)(C)C6CC[C@@]5(C)[C@]3(C)CC4)CC[C@]3(C)C(=CCC4[C@@]5(C)CC[C@H](O)C(C)(C)C5CC[C@]43C)C2C1` (stereo partly shown) [Compound 2m] has an IC50 [1] of 3.93 µM, an IC50 [2] of 4.58 µM and an IC50 [6] of 3.91 µM. For the same molecule, the IC50 [3] was 4.25 µM, the IC50 [4] was 7.43 µM and the IC50 ([5]; Homo sapiens) was 3.06 to 4.58 µM.
`CC1(C)CC[C@]2(C(=O)OCCCCCCCCCCCCOC(=O)[C@]34CCC(C)(C)CC3C3=CCC5[C@@]6(C)CC[C@H](O)C(C)(C)C6CC[C@@]5(C)[C@]3(C)CC4)CC[C@]3(C)C(=CCC4[C@@]5(C)CC[C@H](O)C(C)(C)C5CC[C@]43C)C2C1` (stereo partly shown) [Compound 2n] gave an IC50 [1] of 6.79 µM, an IC50 [2] of 7.41 µM and an IC50 [6] of 6.96 µM. For the same molecule, the IC50 [3] was 6.51 µM, the IC50 [4] was 7.3 µM and the IC50 ([5]; Homo sapiens) was 4.79 to 8.22 µM.
